Measurements reported in patent US20170027958A1, “FULVESTRANT COMPOSITIONS” (THEMIS MEDICARE LIMITED, priority 2013, published 2017).
Read-outs that look alike come from different tables or passages of the source.

Test: Solubility studies of fulvestrant in solvents, co-solvents, oils and release rate modifiers
Type: physicochemical
Details: for solubility: read-out: Fulvestrant solubility achieved
Description: Solubility studies of fulvestrant were performed using various combinations of solvent, co-solvents, oils and release rate modifiers. The resultant data are shown herein below Table 1.

Fulvestrant solubility achieved (Benzyl alcohol (4 v/v %):Diethylene glycol monoethyl ether (q.s. to 1.7 mL)): 300 mg/1.7 mL
solubility (Benzyl alcohol (10 v/v %):Castor oil (50 v/v %):Diethylene glycol monoethyl ether (q.s. to 1 mL)): 151 mg/mL
solubility (benzyl alcohol / diethylene glycol monoethyl ether mixture, Benzyl alcohol (2 v/v %):Diethylene glycol monoethyl ether (q.s. to 1 mL)): 200 mg/mL
SMILES: C[C@]12CC[C@@H]3c4ccc(O)cc4C[C@@H](CCCCCCCCC[S+]([O-])CCCC(F)(F)C(F)(F)F)[C@H]3[C@@H]1CC[C@@H]2O (stereo partly drawn) [Fulvestrant, 7-alpha-[9-[(4,4,5,5,5-pentafluoropentyl)sulfinyl]nonyl]estra-1,3,5(10)-triene-3,17-beta-diol]
